# Laboratory results taken from article PMC9326880 (Journal of Food and Drug Analysis, 2017).
# Where two headings read alike, the source gives them in different places.
# How the values were obtained:
# P-gp [1] = molecular target: T1, P-gp (Homo sapiens, UniProt P08183)
# P-gp [2] = molecular target: T1, P-gp; remark: listed apart in the source
# T1 sequence (P08183 whole entry): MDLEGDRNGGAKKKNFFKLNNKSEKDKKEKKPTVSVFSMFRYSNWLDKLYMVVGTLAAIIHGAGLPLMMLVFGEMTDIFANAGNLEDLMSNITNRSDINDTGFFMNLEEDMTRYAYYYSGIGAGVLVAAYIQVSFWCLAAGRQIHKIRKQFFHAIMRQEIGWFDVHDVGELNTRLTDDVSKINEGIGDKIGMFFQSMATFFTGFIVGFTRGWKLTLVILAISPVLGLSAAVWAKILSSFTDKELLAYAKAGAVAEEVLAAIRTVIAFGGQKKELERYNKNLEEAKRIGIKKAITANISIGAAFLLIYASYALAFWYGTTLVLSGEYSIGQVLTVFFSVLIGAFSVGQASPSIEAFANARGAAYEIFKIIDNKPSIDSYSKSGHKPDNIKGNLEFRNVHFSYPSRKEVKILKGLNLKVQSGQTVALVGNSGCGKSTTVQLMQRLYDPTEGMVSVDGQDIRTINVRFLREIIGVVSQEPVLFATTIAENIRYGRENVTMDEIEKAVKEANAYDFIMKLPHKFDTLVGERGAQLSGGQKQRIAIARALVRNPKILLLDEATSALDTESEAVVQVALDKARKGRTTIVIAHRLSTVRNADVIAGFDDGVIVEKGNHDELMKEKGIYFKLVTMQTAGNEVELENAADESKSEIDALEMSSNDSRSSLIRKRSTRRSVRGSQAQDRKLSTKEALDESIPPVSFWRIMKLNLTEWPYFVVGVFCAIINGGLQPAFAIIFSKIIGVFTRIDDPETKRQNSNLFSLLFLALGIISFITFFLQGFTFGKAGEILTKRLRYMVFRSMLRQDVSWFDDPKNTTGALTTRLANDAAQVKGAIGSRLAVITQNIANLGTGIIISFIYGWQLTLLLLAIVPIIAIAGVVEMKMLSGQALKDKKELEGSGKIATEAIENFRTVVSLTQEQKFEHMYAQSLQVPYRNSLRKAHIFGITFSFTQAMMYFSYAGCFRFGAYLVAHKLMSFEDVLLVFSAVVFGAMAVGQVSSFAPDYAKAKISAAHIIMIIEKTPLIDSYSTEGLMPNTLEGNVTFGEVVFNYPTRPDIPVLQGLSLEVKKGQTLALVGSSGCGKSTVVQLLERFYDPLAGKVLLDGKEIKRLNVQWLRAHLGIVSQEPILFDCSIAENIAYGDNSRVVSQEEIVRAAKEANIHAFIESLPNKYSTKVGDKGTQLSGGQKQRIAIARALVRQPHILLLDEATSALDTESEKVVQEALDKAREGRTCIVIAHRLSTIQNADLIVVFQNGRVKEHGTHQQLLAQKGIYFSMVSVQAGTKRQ
structure (smiles),measurement,setting,value
"COc1ccc2cc3[n+](cc2c1OC)CCc1cc2c(cc1-3)OCO2 [berberine, Berberine]",Influence on viability of LS 180 cells (MTT),LS 180 cells,no toxic influences
same,Decrease of intracellular accumulation of rhodamine 123,P-gp [1],24–39%
"c1c2c(cc3c1OCO3)-c1cc3ccc4c(c3c[n+]1CC2)OCO4 [coptisine, Coptisine]",Influence on viability of LS 180 cells (MTT),LS 180 cells,no toxic influences
same,Decrease of intracellular accumulation of rhodamine 123,P-gp [1],24–39%
"COc1cc2c(cc1OC)-c1cc3ccc(OC)c(OC)c3c[n+]1CC2 [palmatine, Palmatine]",Influence on viability of LS 180 cells (MTT),LS 180 cells,no toxic influences
same,Decrease of intracellular accumulation of rhodamine 123,P-gp [1],16–18%
"CO[C@H]1/C=C/O[C@@]2(C)Oc3c(C)c(O)c4c(O)c(c(/C=N/N5CCN(C)CC5)c(O)c4c3C2=O)NC(=O)/C(C)=C\C=C\[C@H](C)[C@H](O)[C@@H](C)[C@@H](O)[C@@H](C)[C@H](OC(C)=O)[C@@H]1C [rifampin, Rifampin]",Influence on viability of LS 180 cells (MTT),LS 180 cells,no toxic influences
same,Decrease of intracellular accumulation of rhodamine 123,P-gp [2],22.7%
COc1ccc(CCN(C)CCCC(C#N)(c2ccc(OC)c(OC)c2)C(C)C)cc1OC (stereo not shown) [verapamil],Influence on viability of LS 180 cells (MTT),LS 180 cells,no toxic influences
same,Enhancement of intracellular accumulation of rhodamine 123,P-gp [1],32.5%
